This note sets out measurements from US9452185B2, “Mesenchymal stem cells and supports for tissue regeneration, repair and reconstruction” (THE TEXAS A&M UNIVERSITY SYSTEM, priority 2009, dated 2016).

Molecules are shown by their SMILES. Entries after “also recorded” stand apart in the source; their conditions may differ.

This test deals with hMSCs. The experiment in a line: ECM production by hMSC monolayers (nodules, recovered volume, calcium). The format is cell-based, human. How it is done: Micro computer aided tomography (μCT) briefly included scanning of identical calvaria over 360° using a 50 kV beam with a camera resolution of 12 μm. Images were captured every 0.4° with flat field correction and frame averaging enabled. Using mock specimens, grayscale ranges were calibrated over intact bone, partially formed bone and radiolucent tissue over a fixed linear range (corresponding to approximately −100 to +1000 Hounsfield units). Axial reconstructions were generated from the scans and quantified using a appropriate CT software. Once again, each reconstruction parameter was identical and performed over a fixed and linear intensity range in each case so as to reproducibly distinguish bone, partial bone and radiolucent tissue. In each case, ring artifact, smoothing, and beam hardening corrections were enabled. Three dimensional renderings for qualitative appraisal were generated using one or more volume software. Measurements of recovered matrix volume were performed using similar parameters, but the beam power was lowered to 30 kV. For extracellular matrix (ECM) production, hMSC monolayers were treated for 8 days with GW9662 or control OBM media in the usual manner described previously. Mineralizing osteogenic media was then added for a further 10 days with changes every 2 days. Hereafter, all volumes refer to a single 150 cm^2 monolayer culture. Monolayers were washed in PBS and frozen at −80° C. to disrupt cell membranes, thawed to ambient temperature and scraped from the culture plate. Recovered cells and ECM were then pelleted by centrifugation (1,800 G) and suspended in 10 mL of lysis buffer consisting of PBS containing 0.1% (v/v) Triton X100, 1 mM MgCl2, 10 μg mL^−1 DNAse I and 10 μg mL^−1 RNAseA. […] Calcium levels in matrices described were determined using an acid hydrolysis ArsenazoIII method previously described by others. […] Colorimetric determination of calcium was performed by addition of Arsenazo III compound and monitoring the change in absorbance at 595 nm using a plate reader.

`O=C(Nc1ccccc1)c1cc([N+](=O)[O-])ccc1Cl` [GW9662, 2-chloro-5-nitro-N-phenyl-benzamide]: for the setting “GW9662 vs DMSO”, the “calcium content in recovered ECM” value was “elevated calcium levels; also recorded: substantially more calcium mineral than controls”. For the same compound, the “volume of ECM recovered” value (GW9662 vs vehicle treated cells) is recorded as “greater volume of ECM; also recorded: substantial increase in the yield”. Further, the “ECM nodules by phase contrast microscopy” value (hMSC cultures, GW9662 treatment) is “distinct formation of nodules; also recorded: increased”.
